# Measurements from US20200010482A1, “INHIBITORS OF BETA SECRETASE” (Janssen Pharmaceutica NV, priority 2017, published 2020).
# How the values were obtained:
# BACE1 = molecular target: T1, BACE1 (Homo sapiens, UniProt P56817); assay: BACE1 biochemical FRET based assay; conditions: recombinant BACE1 0.04 μg/ml, 20 μM substrate, 450 min, pH 5.0; for IC50: read-out: BIOCHEMICAL FRET BASED ASSAY pIC50 (converted)
# T1 construct: recombinant BACE1 protein in a final concentration of 0.04 μg/ml
# Text: (§1) This assay is a Fluorescence Resonance Energy Transfer Assay (FRET) based assay. The substrate for this assay is an APP derived 13 amino acids peptide that contains the ‘Swedish’ Lys-Met/Asn-Leu mutation of the amyloid precursor protein (APP) beta-secretase cleavage site. This substrate also contains two fluorophores: (7-methoxycoumarin-4-yl) acetic acid (Mca) is a fluorescent donor with excitation wavelength at 320 nm and emission at 405 nm and 2,4-Dinitrophenyl (Dnp) is a proprietary quencher acceptor. […] Upon cleavage by BACE1, the fluorophore Mca is separated from the quenching group Dnp, restoring the full fluorescence yield of the donor. The increase in fluorescence is linearly related to the rate of proteolysis.
# Briefly in a 384-well format recombinant BACE1 protein in a final concentration of 0.04 μg/ml is incubated for 450 minutes at room temperature with 20 μM substrate in incubation buffer (50 mM Citrate buffer pH 5.0, 0.05% PEG) in the presence of compound or DMSO. Next the amount of proteolysis is directly measured by fluorescence measurement (excitation at 320 nm and emission at 405 nm) at different incubation times (0, 30, 60, 90, 120 and 450 min). For every experiment a time curve (every 30 min between 0 min and 120 min) is used to determine the time where we find the lowest basal signal of the high control. The signal at this time (Tx) is used to subtract from the signal at 450 min. Results are expressed in RFU, as difference between T450 and Tx.
# (§2) A best-fit curve is fitted by a minimum sum of squares method to the plot of % Controlmin versus compound concentration. From this an IC50 value (inhibitory concentration causing 50% inhibition of activity) can be obtained. • LC=Median of the low control values=Low control: Reaction without enzyme • HC=Median of the High control values=High Control: Reaction with enzyme
# (§3) % Effect=100−[(sample−LC)/(HC−LC)*100]
# (§4) % Control=(sample/HC)*100
# (§5) % Controlmin=(sample−LC)/(HC−LC)*100
# [1] = system: Abeta total produced and secreted by SKNBE2 cells expressing hAPP695; assay: Cellular αLisa assay in SKNBE2 cells, Abeta total; format: cell-based, human; conditions: SKNBE2 cells expressing hAPP695, 18 hours incubation; for IC50: Homo sapiens, SKNBE2, 18 h, read-out: CELLULAR αLISA ASSAY IN SKNBE2 CELLS ABETA TOTAL pIC50 (converted)
# Method: (§6) In two αLisa assays the levels of Abeta total and Abeta 1-42 produced and secreted into the medium of human neuroblastoma SKNBE2 cells are quantified. The assay is based on the human neuroblastoma SKNBE2 expressing the wild type Amyloid Precursor Protein (hAPP695). The compounds are diluted and added to these cells, incubated for 18 hours and then measurements of Abeta 1-42 and Abeta total are taken. Abeta total and Abeta 1-42 are measured by sandwich αLisa. αLisa is a sandwich assay using biotinylated antibody AbN/25 attached to streptavidin coated beads and antibody Ab4G8 or cAb42/26 conjugated acceptor beads for the detection of Abeta total and Abeta 1-42 respectively. In the presence of Abeta total or Abeta 1-42, the beads come into close proximity. The excitation of the donor beads provokes the release of singlet oxygen molecules that trigger a cascade of energy transfer in the acceptor beads, resulting in light emission. Light emission is measured after 1 hour incubation (excitation at […] and emission at 615 nm).
# as §2, with “cells preincubated” for “Reaction”, “compound, without biotinylated Ab in the αLisa” for “enzyme”, “cells preincubated without compound” for “Reaction with enzyme”
# as §3, §4, §5
# [2] = system: Abeta 1-42 produced and secreted by SKNBE2 cells expressing hAPP695; assay: Cellular αLisa assay in SKNBE2 cells, Abeta 1-42; format: cell-based, human; conditions: SKNBE2 cells expressing hAPP695, 18 hours incubation; for IC50: Homo sapiens, SKNBE2, 18 h, read-out: CELLULAR αLISA ASSAY IN SKNBE2 CELLS ABETA 42 PIC50 (converted)
# Method: as §6
# as §2, with “cells preincubated” for “Reaction”, “compound, without biotinylated Ab in the αLisa” for “enzyme”, “cells preincubated without compound” for “Reaction with enzyme”
# as §3, §4, §5
# BACE2 = molecular target: T2, BACE2 (Homo sapiens, UniProt Q9Y5Z0); assay: BACE2 biochemical FRET based assay; conditions: recombinant BACE2 0.4 μg/ml, 10 μM substrate, 450 min, pH 5.0; for IC50: read-out: BIOCHEMICAL FRET BASED ASSAY pIC50 (converted)
# T2 construct: recombinant BACE2 protein in a final concentration of 0.4 μg/ml
# T2 sequence (Q9Y5Z0 63-518): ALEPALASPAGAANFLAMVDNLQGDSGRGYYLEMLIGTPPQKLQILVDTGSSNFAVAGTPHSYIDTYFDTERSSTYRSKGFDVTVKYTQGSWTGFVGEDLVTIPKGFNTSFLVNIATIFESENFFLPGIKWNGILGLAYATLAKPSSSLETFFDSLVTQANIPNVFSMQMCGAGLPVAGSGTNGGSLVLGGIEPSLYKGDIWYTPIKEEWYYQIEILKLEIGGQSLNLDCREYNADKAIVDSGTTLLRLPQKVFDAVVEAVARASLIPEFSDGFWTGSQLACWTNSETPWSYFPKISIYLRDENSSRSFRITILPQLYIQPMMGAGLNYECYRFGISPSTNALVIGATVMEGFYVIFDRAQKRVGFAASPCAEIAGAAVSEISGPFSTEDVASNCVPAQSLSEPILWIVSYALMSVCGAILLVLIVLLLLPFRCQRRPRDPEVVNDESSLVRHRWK
# Text: as §1, with “assay” for “assay is an APP derived 13 amino acids peptide that”, “the beta-secretase,” for “BACE1,”
# Briefly in a 384-well format recombinant BACE2 protein in a final concentration of 0.4 μg/ml is incubated for 450 minutes at room temperature with 10 μM substrate in incubation buffer (50 mM Citrate buffer pH 5.0, 0.05% PEG, no DMSO) in the absence or presence of compound. Next the amount of proteolysis is directly measured by fluorescence measurement at T=0 and T=450 (excitation at 320 nm and emission at 405 nm). Results are expressed in RFU (Relative Fluorescence Units), as difference between T450 and TO.
# as §2, §3, §4, §5
# T1 sequence (P56817 46-501): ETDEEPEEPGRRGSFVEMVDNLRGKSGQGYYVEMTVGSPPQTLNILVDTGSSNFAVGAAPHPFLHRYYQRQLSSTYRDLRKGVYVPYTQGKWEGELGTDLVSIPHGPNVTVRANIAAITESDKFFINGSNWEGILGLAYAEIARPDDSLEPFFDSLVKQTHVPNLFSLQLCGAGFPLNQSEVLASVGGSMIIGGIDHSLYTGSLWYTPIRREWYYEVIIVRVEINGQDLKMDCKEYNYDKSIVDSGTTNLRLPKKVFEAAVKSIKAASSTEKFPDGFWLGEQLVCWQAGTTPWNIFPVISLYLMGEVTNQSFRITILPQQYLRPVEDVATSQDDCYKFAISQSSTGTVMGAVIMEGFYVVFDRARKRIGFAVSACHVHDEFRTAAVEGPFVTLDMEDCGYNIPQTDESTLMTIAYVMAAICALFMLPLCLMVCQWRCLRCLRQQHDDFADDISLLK
Compound,IC50 (BACE1) [nM],IC50 [1] [nM],IC50 [2] [nM],IC50 (BACE2) [nM],BIOCHEMICAL FRET BASED ASSAY pIC50 (BACE1),CELLULAR αLISA ASSAY IN SKNBE2 CELLS ABETA TOTAL pIC50 [1],BIOCHEMICAL FRET BASED ASSAY pIC50 (BACE2),CELLULAR αLISA ASSAY IN SKNBE2 CELLS ABETA 42 PIC50 [2]
COc1nccc2c1C[C@]1(c3ccccc3F)N=C(N)SC[C@@H]1C2 (racemic) [Compound 2],158,46.8,53.7,174,,,,
COc1ncc(Br)c2c1C[C@]1(c3ccccc3F)N=C(N)SC[C@@H]1C2 (racemic) [Compound 16],55,138,138,77.6,,,,
CCOC(=O)c1cnc(OC)c2c1C[C@H]1CSC(N)=N[C@@]1(c1ccc(F)cc1F)C2 (racemic) [Compound 24],13.8,6.61,6.92,12.3,,,,
COc1nccc2c1CC1(c3cc(O)ccc3F)N=C(N)SCC1C2 (racemic) [Compound 5],162,32.4,26.3,63.1,,,,
NC1=N[C@@]2(c3ccccc3F)Cc3c(cc[nH]c3=O)C[C@H]2CS1 (racemic) [Compound 3],8710,4680,4070,9550,,,,
COc1ncc(C2CC2)c2c1C[C@]1(c3ccccc3F)N=C(N)SC[C@@H]1C2 (racemic) [Compound 20],24.5,23.4,23.4,14.1,,,,
COc1ncc(Br)c2c1CC1(c3ccc(F)cc3F)N=C(N)SCC1C2 (racemic) [Compound 17],30.9,145,132,67.6,,,,
COc1nccc2c1C[C@]1(c3ccccc3)N=C(N)SC[C@@H]1C2 (racemic) [Compound 1],398,74.1,69.2,468,,,,
COc1ncc(-c2ccccc2Cl)c2c1C[C@]1(c3ccc(F)cc3F)N=C(N)SC[C@@H]1C2 [Compound 52],,,,,8.38,7.88,7.35,7.96
COc1ncc(-c2ccn[nH]2)c2c1C[C@]1(c3ccc(F)cc3F)N=C(N)SC[C@@H]1C2 (racemic) [Compound 29],35.5,12.6,13.5,35.5,,,,
COc1ncc(-c2cccnc2)c2c1C[C@]1(c3ccc(F)cc3F)N=C(N)SC[C@@H]1C2 (racemic) [Compound 25],5.89,1.91,1.7,12,,,,
COc1nccc2c1C[C@]1(c3ccc(F)cc3F)N=C(N)SC[C@@H]1C2 [Compound 35],34.7,12,13.8,44.7,,,,

# Further lines, with some results ahead:
IC50 (BACE1) [nM],IC50 [1] [nM],IC50 [2] [nM],IC50 (BACE2) [nM],BIOCHEMICAL FRET BASED ASSAY pIC50 (BACE1),CELLULAR αLISA ASSAY IN SKNBE2 CELLS ABETA TOTAL pIC50 [1],BIOCHEMICAL FRET BASED ASSAY pIC50 (BACE2),Compound,CELLULAR αLISA ASSAY IN SKNBE2 CELLS ABETA 42 PIC50 [2]
4470,3470,3090,6920,,,,COc1nccc2c1C[C@@]1(c3cc(O)ccc3F)N=C(N)SC[C@H]1C2 [Compound 183],
,,,,5.26,5.9,<5,COc1ncc(-c2cnccc2C)c2c1C[C@@]1(c3cc(-c4cncnc4)ccc3F)N=C(N)SC[C@H]1C2 [Compound 193],6.01
17.8,,,437,,8.05,,"COc1ncc(-c2cnccc2C)c2c1CC1(c3ccc(Cl)cc3F)N=C(N)SCC1C2 (single isomer, unassigned) [Compound 200]",8.09
,,,,7.97,7.9,6.84,COc1ncc(-c2cc(C#N)ccc2Cl)c2c1C[C@]1(c3ccc(F)cc3F)N=C(N)SC[C@@H]1C2 [Compound 53],7.84
6460,,,> 10000,,5.69,,"COc1ncc(-c2cnccc2C)c2c1CC1(c3ccc(Cl)cc3F)N=C(N)SCC1C2 (single isomer, unassigned) [Compound 201]",5.64
,,,,7.97,7.82,7.72,COc1ncc(Br)c2c1C[C@]1(c3cc(Oc4ccccn4)ccc3F)N=C(N)SC[C@@H]1C2 [Compound 137],7.74
,,,,7.6,7.62,7.55,COc1ncc(Oc2ccccn2)c2c1C[C@]1(c3ccc(F)cc3F)N=C(N)SC[C@@H]1C2 [Compound 135],7.6
3.8,0.631,0.646,7.08,,,,COc1ncc(-c2cccnc2)c2c1C[C@]1(c3ccc(F)cc3F)N=C(N)SC[C@@H]1C2 [Compound 87],
4790,1320,1290,6170,,,,COc1nccc2c1C[C@@]1(c3ccc(F)cc3F)N=C(N)SC[C@H]1C2 [Compound 182],
,,,,6.9,7.09,6.85,"CCOc1nccc2c1CC1(c3ccc(F)cc3F)N=C(N)SCC1C2 (single isomer, unassigned) [Compound 195]",7.09
